Key:
[1] = Fluorescence response to D-fructose binding; conditions: probe 2 μM; D-fructose 100 mM; pH 7.3 buffer
Description: (a) Fluorescence spectra of probe 1 (2 μM) and then addition of D-fructose (100 mM). After addition of D-fructose, the mixtures were stirred for 10 min; (b) Probe 1-D-fructose complex (probe 1, 2 μM; D-fructose, 100 mM) in different concentration of ONOO^−. After addition of peroxynitrite, the mixtures were stirred for 5 min;
The saccharide-boronic acid complexes were formed by mixing free boronic acid (2 μM) with D-fructose (100 mM) for 10 min in situ.
In the case of probe 1, a significant “off-on” signal response is seen on binding with D-fructose due to an inhibition of PET mechanism. From FIG. 3a, the maximum fluorescence intensity of probe 1 (2 μM, λem=525 nm) is increased two-fold in the presence of D-fructose (100 mM) at pH 7.3 buffer solution.

[2] = Fluorescence response to hydrogen peroxide
Description: The pH was adjusted from 7.30 to 8.10 using aqueous sodium hydroxide (10 N); (b) Fluorescence spectra of probe 1-D-fructose complex (probe 1, 2 μM; D-fructose, 100 mM) in the presence of hydrogen peroxide (1 mM) at pH 7.3 buffer solution. The spectra were collected at increasing reaction times with excitation at 410 nm (Ex slit: 5.0, Em slit: 5.0);
The concentration of hydrogen peroxide (H2O2) was determined from the absorption at 240 nm (ε=43.6 M^−1 cm^−1).
Since boronate-based derivatives can be oxidized to phenol by H2O2 and ONOO^−, it is important to discriminate them by fluorescence tools. Independently, the present inventors tested the responses of probe 1 and 1-D-fructose complex towards hydrogen peroxide (FIG. 7). With the free boronic acid system, the fluorescence of probe 1 (2 μM) increased to F/F0=ca. 1.59 in the presence of hydrogen peroxide (100 μM) over 1 h at pH 7.30 buffer solution. When the solution was adjusted to pH 8.10, the fluorescence decreased most probably due to the decomposition of the intermediate to phenol (FIG. 7a). This is different from the process observed for the detection of ONOO^− in which boronic acid was transformed into phenol quickly and directly.
The fluorescence reaction of 1-D-fructose complex towards ONOO^− amd H2O2 at pH 5.0 buffer solution in order to mimic the acidic conditions found in cancer cells (FS5) was also studied. […]

[3] = pH titration of fluorescence intensity; assay type: physicochemical; conditions: probe 2 μM
Description: As shown by FIG. 2, the fluorescence intensity of the probe 1 decreased at pH values above 8.0. […] Thus, the probe can be expected to work well under physiological conditions (pH 7.30, PBS buffer). In the presence of D-fructose (100 mM), the fluorescence of the formed 1-D-fructose complex increases due to the enhanced N—B interaction at different pH values. The fluorescence of 1-D-fructose complex decreases over a pH range of 3-11.

[4] = Fluorescence titration with peroxynitrite; conditions: saccharide free probe 2 μM; peroxynitrite 60 μM; pH 7.3 PBS
[5] = UV-Vis absorption spectra; assay type: physicochemical
Description: While the presence of ONOO^− (100 μM), a new peak (A=0.021) at 360 nm developed due to the formation of phenol.

increase of maximum fluorescence intensity (λem=525 nm) in presence of D-fructose [1]: two-fold | pH effect on fluorescence intensity ([3]; pH range between 3.0 and 8.0): minimal effect | pH effect on fluorescence intensity ([3]; pH values above 8.0): decreased | maximum absorption A at 440 nm ([5]; free boronic acid probe 2 μM): 0.026 | absorption A of new peak at 360 nm ([5]; in presence of ONOO− 100 μM): 0.021 | absorption A at the maximum absorption wavelength ([5]; probe 2 μM with D-fructose 100 mM): 0.019
SMILES: CN(CCNc1ccc2c3c(cccc13)C(=O)N(CCOCCO)C2=O)Cc1ccccc1B(O)O [probe 1]
F/F0 ([2]; free boronic acid probe 2 μM, hydrogen peroxide 100 μM over 1 h, pH 7.30 buffer): ca. 1.59 | fluorescence after adjusting the solution to pH 8.10 ([2]; probe 2 μM after H2O2 100 μM, pH adjusted from 7.30 to 8.10): decreased | F/F0 [4]: ca. 0.10
